Assay: Effective concentration for phenotypic endpoint in tadpoles
Design: species or system frog, Tadpole

EC50: ~700 µM
Compound: CCCCCCO [1-HEXANOL]

Reference: ChEMBL document CHEMBL1139547, “Anesthetic potency of two novel synthetic polyhydric alkanols longer than the n-alkanol cutoff: evidence for a bilayer-mediated mechanism of anesthesia?” (J Med Chem, 2005)
